Measurements from paper PMC6960285, “Unique Microbial Catabolic Pathway for the Human Core N-Glycan Constituent Fucosyl-α-1,6-N-Acetylglucosamine-Asparagine” (mBio, 2020).

Experiments:
[1] = target: T1, AlfC (Lacticaseibacillus paracasei, UniProt A0A422MHI3); assay: transfucosylation, product by HPLC and NMR; type: biochemical; details: acceptor, 100 mM; donor 50 mM pNP-fuc; 100 mM Tris-HCl pH 7.0, 42°C
T1 construct: gene BN194_28780; 6xHis-AlfC from E. coli DH10B with pQEalfC, purified as earlier published
T1 sequence (A0A422MHI3 1-344): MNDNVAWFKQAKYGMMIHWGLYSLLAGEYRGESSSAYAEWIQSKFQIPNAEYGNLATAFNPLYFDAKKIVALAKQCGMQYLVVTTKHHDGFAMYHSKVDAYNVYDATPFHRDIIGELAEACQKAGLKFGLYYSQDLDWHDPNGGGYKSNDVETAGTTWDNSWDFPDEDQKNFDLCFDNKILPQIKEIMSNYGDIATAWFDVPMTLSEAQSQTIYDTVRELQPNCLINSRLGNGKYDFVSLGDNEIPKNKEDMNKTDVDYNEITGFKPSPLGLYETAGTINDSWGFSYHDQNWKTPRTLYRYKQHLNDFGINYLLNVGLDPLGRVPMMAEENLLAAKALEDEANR

[2] = target: His-tagged AsnA2, N(4)-(β-N-acetylglucosaminyl)-L-asparaginase (glycosylasparaginase) of Lactobacillus casei BL23 (Lactobacillus casei BL23); assay: SEC; size exclusion chromatography of purified His-tagged AsnA2 on a HiPrep 16/60 Sephacryl S-300 HR column, calibrated with five standard proteins; native molecular weight estimated

Row | stoichiometry N [2] | Molecule | transfucosylation, product by HPLC and NMR [1]
1 | – | CC(=O)N[C@@H]1[C@@H](O)[C@H](O)[C@@H](CO)O[C@H]1NC(=O)C[C@H](N)C(=O)O [GlcNAc-Asn] | the ability of AlfC to use GlcNAc-Asn as the acceptor was tested
2 | 2 | His-tagged AsnA2, N(4)-(β-N-acetylglucosaminyl)-L-asparaginase (glycosylasparaginase) of Lactobacillus casei BL23 (enzyme) | –
